Measurements as given in patent US5273989A, “3,5-disubstituted 2-isoxazolines and isoxazoles, agents containing them and their use” (Hoechst Aktiengesellschaft, priority 1990, dated 1993).
Structures can show the parent of a compound that is named as a salt. Where two headings read alike, the source gives them in different places.

Experiments:
[1] = test system: NMDA receptor-channel complex; test: Inhibition of 3H-MK-801 binding to membranes from rat brain; conditions: preparation concentration 50 μM; 3H-MK801 1 nM
Experimental: 3. Inhibition of ^3 H-MK-801 binding to membranes from rat brain
Test principle: MK-801 is a non-competitive antagonist which binds to ion channels coupled to NMDA receptors (Yoneda et al., Brain Res. 499 (1989), 305). Membranes from whole brain containing preparation and ^3 H-MK-801 are incubated in the test. The binding of ^3 H-MK-801 or its displacement by preparations (antagonists) is determined by radiochemical methods.
Experimental protocol: The binding experiments are carried out by the method of Reynolds et al. (Proc. Natl. Acad. Sci. USA, 84 (1987), 7744). Membrane preparation is first carried out according to Reynolds. Test samples are then pipetted, buffer and test preparation being initially introduced, then preincubated with protein for 2 minutes, and initiated using ^3 H-MK801. The membranes are thawed at 37° C., incubated at 37° C. for 10 minutes and homogenized for 15 seconds at half the maximum speed by means of a Polytron, then used in the cool state again. The incubation medium contains: pH 7.4 Hepes buffer 20 mM, preparations in three concentrations 5 μM, 10 μM and 50 μM, membranes 500 μg/ml of test solution, ^3 H-MK801 1 nM. Incubation is carried out at room temperature (23° C.) for 60 minutes and is then stopped by filtration. For this purpose, glass fiber paper No. 32 from Schleicher and Schull, which had been soaked in 0.03% polyethyleneimine for 30 minutes on the day before the experiment are counted in 4 ml of "Packard 199™" Scintillation fluid (Frankfurt). Tritium is determined by liquid scintillation counting using a Packard 1500.
Calculation of the results: The calculation of the binding in femtomol/mg of protein over a period of 60 min. was carried out using a small calculator (HP-97). If a substance antagonizes the binding, the value decreases. Substance activities are indicated in Table 5 as percentages, i.e. in % binding compared to the control. The activity of the comparison preparation CPP (3-(+)-2-carboxypiperazin-4-ylpropyl-1-phosphonic acid) at 5 μM, 10 μM and 50 μM is always determined to check the test.

[2] = test system: NMDA-stimulated 3H-acetylcholine release, striatum sections; test: Inhibition of NMDA-stimulated 3H-acetylcholine release from striatum sections of the rat brain; format: cell-based; conditions: preparation concentration 10 μM, 25 μmol/l NMDA stimulus, relative to control S2/S1, read-out: Inhibition of 3H-acetylcholine release from striatum sections, Inhibition (%)
Experimental: 2. Inhibition of ^3 H-acetylcholine release from striatum sections of the rat brain
Test principle: For the test, fresh striatum sections from rat brain were rinsed with buffer solution in a special chamber and the release of the tritium-labeled acetylcholine was measured after stimulation with NMDA. Preparations having NMDA-antagonist action inhibit acetylcholine release.
Experimental protocol: The superfusion experiments were carried out by the method of Wichman et al. (Naunyn-Schmied. Arch. Pharmacol., 338 (1988), 623-631). Rat brain sections, 0.5 mm thick, were preincubated for 30 min in 2 ml of incubation medium which contains 0.1 μmol/l of ^3 H-choline having a specific activity of 80 Ci/mmol. In each of 6 superfusion chambers, a section was transferred and superfused for 90 min at a rate of 1.5 ml/min. 2 min fraction of the superfusate were continuously collected. Each section was superfused twice with 25 μmol/l of NMDA of two minutes each time in order to stimulate the release of acetylcholine. The first stimulus (S1) takes place between the 54th and the 56th minute and the 2nd stimulus (S2) between the 76th and 78th minute. The incubation medium contained, in mmol/l: NaCl 118, KCl 4.8, CaCl2 1.2, MgSO4 1.2, NaHCO3 25, KH2 PO4 1.2 and glucose 10. The medium was saturated with Carbogen at 37° C. The pH was adjusted to 7.4 NMDA and the novel preparations to be tested were dissolved in superfusion medium. The superfusion was carried out using Mg^2+ -free medium. Tritium from the dissolved sections and from the superfusate was determined by liquid scintillation counting using a Packard® 1900 CA (Frankfurt) at a 50% efficiency.
Calculation of the Results
Basal release and NMDA-stimulated release for S1 and S2 were expressed in %/min of each fraction (Limberger et al, Naunyn Schmied. Arch. Pharmacol. 339 (1988), 53-61).
The value for the stimulated release S2 /S1 was calculated for the control as 0.69±0.09. The value decreases if a substance, such as, for example, the NMDA receptor antagonist CPP (3-(+)-2-carboxypiperazin-4-ylpropyl-1-phosphonic acid) known from the literature inhibited the NMDA-stimulated release. The inhibition of the stimulated release by preparations was calculated in percent, relative to the control value, and is indicated in Table 4.

[3] = test system: high affinity 3H-D-aspartate absorption, synaptic vesicles (synaptosomes) from rat cortex; test: "High affinity" absorption of 3H-aspartate in a vesicle preparation from rat brain; format: biochemical; conditions: preparation concentration 100 μM; relative to control values (100%)
Experimental: 1. "High affinity" absorption of ^3 H-aspartate in a vesicle preparation from rat brain.
Test principle: Fresh synaptic vesicles (synaptosomes) from rat cortex are incubated with buffer solution and ^3 H-D-aspartate and ^3 H-D-aspartate in the vesicles is measured. Preparations which in comparison to control synaptosomes increase the high affinity ^3 H-D-aspartate absorption and those which prevent the loss of ^3 H-D-aspartate by reliberation are regarded as particularly interesting.
Experimental protocol: The experiments for ^3 H-D-aspartate absorption were carried out by the method of Anand et al. (Biochem. Pharmacol., 35 (1986), 1055-1057). The synaptic vesicles were dissected out of cerebral cortex from male Sprague-Dawley rats. The preparations were tested at four concentrations as double samples in parallel with control samples containing buffer. The incubation medium (pH 7.4) contains: 1.2 mM KH2 PO4, 5 mM KCl, 5 mM pyruvate, 1.2 mM glucose, 1.2 mM MgCl2, 114 mM NaCl, 25 mM NaHCO3. For the non-specific ^3 H-D-aspartate absorption, NaCl was replaced by 114 mM choline chloride and NaHCO3 by 25 mM KHCO3. An aliquot of the vesicle suspension (about 25 μg/ml of test solution) was added to the test sample which was temperature controlled at 37° C. and aerated with Carbogen (5% CO2, 95% O2) and preincubated for 2 minutes. The three minutes incubation for the amino acid absorption was started by addition of 50 μl of ^3 H-D-aspartate (specific activity 25 Ci/mmol, 10 pmol/ml of test solution). The vesicles were separated from the incubation medium by filtration and additional washing of the adhering labeled amino acids using a Titertek cell harvester (Flow Laboratories, Meckenheim). The ^3 H-D-aspartate absorption was measured by means of a liquid scintillation counter (Canberra-Packard, Model 1500, Frankfurt).
The preparation activity is indicated in percent of the specific ^3 H-D-aspartate absorption, relative to control values (100%), in Table 3. Adenosine triphosphate (ATP) was used for comparison as the standard substance (see Table 3) and at 1 mM caused a 35% increase in the ^3 H-D-aspartate absorption.

[4] = test system: CA1 pyramidal cells of the hippocampus after forebrain ischemia; test: Neuroprotection after forebrain ischemia in the gerbil; conditions: 50 mg/kg p.o., 15 minutes before ischemia
Experimental: A 5-minutes' ischemia of the forebrain with subsequent recirculation is produced in 20 male Mongolian gerbils under halothane anesthesia by bilateral closure of the corotid artery by means of aneurysm clips. 7 days later, the animals are decapitated under halothane anesthesia, the brains are fixed by immersion in Carnoy solution and the extent of neuron damage in the CA1 region of the hippocampus is determined "blind" with the aid of a 5-stage histopathological score. The test substance is administered intraperitoneally or orally 15 minutes before ischemia to each group of 10 gerbils. One ischemic control group, also of 10 animals, is treated with the respective solvents per test substance.

NMDA-induced cramps = test: Inhibition of NMDA-induced cramps in the mouse; format: in vivo; conditions: po, 1 h
Experimental: 4. Inhibition of NMDA-induced-cramps in the mouse
The examples listed below show neuroprotective activity in that they antagonize the cramps induced by NMDA (N-methyl-(D)-aspartate). To this end, intravenous injections of 20-30 mg/kg of NMDA are carried out on a male NMRI (Naval Medical Research Institute) mice of 22-24 g body weight, which leads to stereotypes, clonic cramps and in the majority of cases to mortality. In order to investigate an NMDA-antagonist activity of the test substances, they are administered orally one hour before NMDA. The animals are then observed for the abovementioned symptoms for up to 60 min. The number of animals with clonic cramps and the incidence of mortality, expressed in percent change compared to the control group, is regarded as the evaluation criterion.

[5] = Toxicity (LD50) in the mouse; conditions: in vivo, iv
From the text: As the examples investigated show considerable differences in toxicity compared to the standard substances, the LD50 values are also listed in Table 6,

Compound	Inhibition of 3H-MK-801 binding to the NMDA receptor-channel complex, inhibition (%) [1] [%]	inhibition at 10 µM [2] [%]	Stimulation of the 3H-D-aspartate absorption, Stimulation (%) [3] [%]	Cell necroses (% change) ([4]; histopathological score CA1, treated versus control group)	Behavior score (% change) ([4]; treated versus control group)	inhibition in vivo at 50 mg/kg (NMDA-induced cramps; 50 mg/kg p.o., one hour before NMDA i.v., change compared to control group, read-out: Inhibition of convulsions) [%]	inhibition in vivo at 50 mg/kg (NMDA-induced cramps; read-out: Inhibition of mortality) [%]	LD50 [5] [mg/kg]
CC(C)[C@H]1CC[C@H](C)C[C@@H]1OC(=O)CCc1cc(C[N+](C)(C)C)on1 [Example 19, (+)-Menthyl 5-trimethylammoniomethylisoxazole-3-propionate iodide]	16	16	25	-25	0			
CC(C)[C@@H]1CC[C@@H](C)C[C@H]1OC(=O)CCc1cc(CNC(=O)[C@@H](N)Cc2ccccc2)on1 [Example 21, (-)-Menthyl 5-(L-phenylalanylamino)methylisoxazole-3-propionatehydrochloride]	45	20				30	40	25 to 50
